The record followed here is publication PMC8706998, “Lipid Nanocarriers-Loaded Nanocomposite as a Suitable Platform to Release Antibacterial and Antioxidant Agents for Immediate Dental Implant Placement Restorative Treatment” (Pharmaceutics, 2021).

“And” between values parts separate entries of the source, which are not always exact repeats. Equal values may be shown once.

Data set [1] in a line: Ex vivo permeation/penetration experiments in Franz-type cells. Format: in vitro ADME, pig. To be noted: from 30 mg BioQ-CPX. The procedure: Tissue specimens were obtained from the vestibular area of the retromolar trigone derived from 6–8-month-old pigs supplied by the Municipal Slaughterhouse of Villabate (Palermo, Italy) since withdrawn from animals intended for human consumption. By a refrigerated transport box, the specimens were immediately transferred to the laboratory within 1 h from animal sacrifice and surgically treated to remove both adipose and connective tissues in excess. Afterward, they were dipped for 30 min in a 5% THR (w/v) isotonic solution and then stored at −80 °C for a minimum period of one week. Before the permeation/penetration experiments, tissue samples were accurately washed to remove the cryoprotectant, and, subsequently, thermal shocked to obtain the buccal mucosa. Briefly, tissue samples were dipped for 30 s in a pre-warmed (70 °C) isotonic solution, and then the mucosa was carefully peeled off from the connective tissue, obtaining the heat-separated epithelium along with the intact basal lamina. Finally, it was equilibrated in an isotonic solution for 3 h by replacing the medium every 15 min to remove all the biological matter, which could affect the analysis, before use.
The ex vivo permeation/penetration studies were carried out using vertical Franz-type diffusion cells. Briefly, appropriate sections of buccal mucosa were mounted between the donor and the acceptor chambers filled with 1 mL of citrate buffer pH 5.5 and 15 mL of citrate buffer pH 5.5 amended with acetic acid 0.1% (v/v), Acys 0.002% (w/v), and β-CD 3% (w/v). The whole system was equilibrated at 37 ± 0.5 °C for 30 min. Afterward, the medium was removed from the donor compartment, promptly replaced with 30 mg of BioQ-CPX, and soaked with 0.2 mL of citrate buffer pH 5.5. Every 30 min, aliquots (0.5 mL) were withdrawn from the acceptor chamber and immediately replaced with the same volume of fresh acceptor fluid to maintain the sink conditions. Experiments were carried out at 37 ± 0.5 °C in the dark and under constant stirring, being stopped at different time points ranging from 1 to 6 h. The amount of permeated QRC and CPX were quantified by UV–Vis analysis. Data are reported as means ± SE (n = 6).
Briefly, the mucosa was dipped into 2 mL of methanol and warmed up to 60 °C. The extraction procedure was performed twice, and the collected extraction liquors were transferred into a 10 mL flask and brought to volume with fresh methanol. Thus, QRC and CPX amounts were determined by UV–Vis analysis. Results are reported as means ± SE.

A short description of data set [2]: CPX release study, dialysis tube method. Format: physicochemical. To be noted: from BioQ-CPX, citrate buffer pH 5.5 + acetic acid, after 1.5 h. On the procedure: (§1) The system was submerged in 15 mL of the same medium; (b) Franz diffusion cells (Permeagear, flat flange joint, 9 mm orifice diameter, 15 mL acceptor volume, SES GmbH-Analysesysteme, Bechenheim, Germany) consisting in a donor chamber filled with 10 mg of powder and soaked with 0.5 mL of citrate buffer pH 5.5, and an acceptor chamber filled with 15 mL of the same medium plus glacial acetic acid 0.01% (v/v). A cellulose dialysis membrane (Medicell Membranes, London, UK: MWCO: 12–14,000 Da) previously soaked with the acceptor fluid, was inserted between the two compartments.
(§2) QRC release studies were carried out using a modified transwell permeable support (0.45 µm) filled with 5 mg of the BioQ-CPX powder and soaked with 0.2 mL of citrate buffer pH 5.5. The entire system was dipped inside a beaker filled with 8 mL of 1-octanol as a suitable acceptor fluid. […] The experiments were carried out at 37 ± 0.5 °C under constant stirring and protected by light exposure while, immediately after sampling, opportune volumes of fresh acceptor fluid were added to maintain the sink conditions. Data are reported as means ± SE (n = 6). Drug release profiles were elaborated using OriginPro 8.5 software and fitted with semi-empirical model equations. Fittings were validated by using R^2 value where a p-value of less than 0.05 was considered statistically significant.

In data set [3] the test system is S. aureus cells growing as a biofilm. The data set can be described thus: Biofilm inhibition, crystal violet staining. The conditions noted are these: 5 mg BioQ-CPX in 200 μL culture, CPX at the same concentration as in BioQ-CPX; 24 h, 37 °C. Format: cell-based, Staphylococcus aureus. On the procedure:
Briefly, pre-cultivated S. aureus cells for 16 h at 37 °C were inoculated (1% v/v corresponding to ca. 1 × 10^7 CFU/mL) in TSB medium. The set-up culture was aliquoted (200 μL) in a 96-well microtiter plate. […] The microtiter plate was then incubated for 24 h at 37 °C under static mode, allowing for bacterial biofilm formation. After the incubation period, bacterial cultures have been disposed, while each well was washed 3 time with 200 μL of sterile physiological (NaCl 0.9% w/v) solution to remove loosely adherent cells. Then, S. aureus biofilms were stained by adding 200 μL of an aqueous crystal violet (0.1% w/v) solution at room temperature for 15 min. Subsequently, wells were washed 5 times with 200 μL of physiological solution to remove the excess of unbound crystal violet and left to dry for 20 min at 65 °C. Finally, crystal violet was solubilized by adding 200 μL of an acetic acid (30% v/v) solution, the absorbance (Abs) being read at 600 nm using a DU-730 Life Science spectrophotometer (Beckman Coulter, Brea, CA, USA). Unchallenged cultures were used as reference biofilms (positive control), while wells containing only the medium utilized in this study were used as a negative control. The percentage of biofilm inhibition was calculated as follows: Biofilm inhibition (%)=(Abs positive control−Abs challenge)/Abs positive control×100

The nature of data set [4]: CPX release study, Franz diffusion cell with cellulose membrane. The conditions noted are these: CPX release from BioQ-CPX, data up to 9 h. Format: physicochemical. The procedure: as §1, §2
Data set [5] concerns Staphylococcus aureus ATCC 25923 strain, growing as planktonic cells. Briefly: Kill curve assay. Format: cell-based. To be noted: ca. 0.1 mg/mL CPX (highest amount in BioQ-CPX); data not shown. The procedure:
Kill curve assays were performed to test the antimicrobial efficacy of BioQ-CPX, BioQ, and the Blank CTS matrix against the indicator pathogen Staphylococcus aureus ATCC 25923 strain, growing as planktonic cells. Briefly, a single colony of S. aureus strain was picked up and pre-cultivated (ca. 16 h) at 37 °C with shacking (160 rpm) in tryptone soy broth medium (hereinafter named as TSB; Merck, Milan, Italy). The same medium was solidified by adding 15 g/L of bacteriological agar when needed. Bacterial cells were then inoculated [0.05% v/v corresponding to ca. 5 × 10^5 colony forming units (CFU) per mL of culture] in TSB medium amended with increasing concentrations (i.e., 1, 2.5, and 5 mg/mL) of the above-mentioned samples. The set up bacterial cultures were challenged for 24 h according to the same pre-culturing conditions. The actual number of viable S. aureus CFU/mL—who survived the challenge exerted by BioQ-CPX, BioQ, and Blank matrix—was evaluated through the spot plate count method and compared to unchallenged cultures. The data are reported as average values (n = 3) of the CFU/mL in the logarithmic (Log10) scale with standard deviation (SD).

For `O=C(O)c1cn(C2CC2)c2cc(N3CCNCC3)c(F)cc2c1=O` [CPX, Ciprofloxacin], the “maximum amount accumulated into the mucosa” value in data set [1] (after 5 h) is listed as “about 5 % of drugs dose”. Moreover, in data set [1] (first hour from application), the “amount accumulated into the mucosa” value is “about 4 % of dose”. The CPX released in data set [2] came out at 80%. Further, the “S. aureus biofilm formation inhibition” value in data set [3] is given as “ca. 55%”. Also, in data set [4], the Korsmeyer-Peppas n was 0.8280 ± 0.0125 and 0.8280; the “Korsmeyer-Peppas with Tlag n” value is reported as 0.8293. In data set [4] (time in hours), the First-Order k was 0.1359, the Korsmeyer-Peppas k was 0.1134, the “Korsmeyer-Peppas with Tlag k” value turned out to be 0.1113 and the “Korsmeyer-Peppas with Tlag: Tlag” value is given as −0.031. In data set [4] (time in hours), this compound gave a Zero-Order k of 0.079. In data set [5], the “effect on bacterial growth” value is “did prevent bacterial growth”.
